Laboratory results from ChEMBL document CHEMBL1154905, “The taiwaniaquinoids: a review” (J Nat Prod, 2010).

Each molecule was assayed against T1, Aromatase (Homo sapiens, UniProt P11511) (assay: Inhibition of human recombinant aromatase at 1 uM).
T1 sequence (P11511 whole entry): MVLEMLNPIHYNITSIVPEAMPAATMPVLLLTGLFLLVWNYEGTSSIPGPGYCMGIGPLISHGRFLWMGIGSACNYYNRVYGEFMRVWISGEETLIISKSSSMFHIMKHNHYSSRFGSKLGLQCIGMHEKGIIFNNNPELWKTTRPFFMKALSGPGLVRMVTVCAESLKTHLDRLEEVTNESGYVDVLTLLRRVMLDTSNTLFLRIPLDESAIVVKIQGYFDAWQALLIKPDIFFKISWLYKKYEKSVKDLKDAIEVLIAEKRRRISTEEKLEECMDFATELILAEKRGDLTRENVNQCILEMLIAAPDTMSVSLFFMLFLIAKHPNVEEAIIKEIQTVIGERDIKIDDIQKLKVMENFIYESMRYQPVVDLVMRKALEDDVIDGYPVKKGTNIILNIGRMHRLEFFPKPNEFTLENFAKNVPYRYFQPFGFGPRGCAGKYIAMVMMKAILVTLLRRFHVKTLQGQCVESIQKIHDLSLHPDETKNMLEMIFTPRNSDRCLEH

SMILES | inhibition at 1 µM
CC(=O)Oc1c(C(C)C)cc(C=O)c2c1[C@H](OC(C)=O)[C@H]1C(C)(C)CCC[C@]21C [STANDISHINAL DIACETATE] | 38.6%

Each molecule was assayed against T1, Aromatase (assay: Inhibition of human recombinant aromatase at 0.6 uM).

SMILES | inhibition at 0.6 µM
C[C@]12CCC(=O)C(O)=C1CC[C@@H]1[C@@H]2CC[C@]2(C)C(=O)CC[C@@H]12 [FORMESTANE] | 63.7%

These molecules were tested against T1, Aromatase (assay: Inhibition of human recombinant aromatase at 10 uM).

SMILES | inhibition at 10 µM
CC(=O)N1CCN(c2ccc(OCC3COC(Cn4ccnc4)(c4ccc(Cl)cc4Cl)O3)cc2)CC1 (configuration not stated) [KETOCONAZOLE] | 92.5%
N#Cc1ccc(C(c2ccc(C#N)cc2)n2cncn2)cc1 [LETROZOLE] | 87.9%

The molecules below were run against T1, Aromatase (assay: Inhibition of human recombinant aromatase at 3 uM).

SMILES | inhibition at 3 µM
CC(=O)N1CCN(c2ccc(OCC3COC(Cn4ccnc4)(c4ccc(Cl)cc4Cl)O3)cc2)CC1 (configuration not stated) [KETOCONAZOLE] | 83.8%
N#Cc1ccc(C(c2ccc(C#N)cc2)n2cncn2)cc1 [LETROZOLE] | 87.5%

Each molecule was assayed against T1, Aromatase (assay: Inhibition of human recombinant aromatase at 0.3 uM).

SMILES | inhibition at 0.3 µM
CC(=O)N1CCN(c2ccc(OCC3COC(Cn4ccnc4)(c4ccc(Cl)cc4Cl)O3)cc2)CC1 (configuration not stated) [KETOCONAZOLE] | 89.3%
N#Cc1ccc(C(c2ccc(C#N)cc2)n2cncn2)cc1 [LETROZOLE] | 81.7%

What follows are molecules tested on human gammaherpesvirus 4 (assay: Inhibition of TPA-induced EBV early antigen activation at 32 uM).

SMILES | inhibition
CC(C)c1cc(C=O)c2c(c1O)[C@H](O)[C@H]1C(C)(C)CCC[C@]21C | 85.9%
CC1=C(/C=C/C(C)=C/C=C/C(C)=C/C=C/C=C(C)/C=C/C=C(C)/C=C/C2=C(C)CCCC2(C)C)C(C)(C)CCC1 | 91%
CC[C@@H](C)CC[C@H]1[C@@H](C)CC[C@H]2C(C)(C)CCC[C@]12C | 92.3%
CC(=O)Oc1c(C(C)C)cc(C=O)c2c1[C@H](OC(C)=O)[C@H]1C(C)(C)CCC[C@]21C [STANDISHINAL DIACETATE] | 84.5%

These molecules were tested on human gammaherpesvirus 4 (assay: Inhibition of TPA-induced EBV early antigen activation at 16 uM).

SMILES | inhibition
CC(C)c1cc(C=O)c2c(c1O)[C@H](O)[C@H]1C(C)(C)CCC[C@]21C | 32%
CC1=C(/C=C/C(C)=C/C=C/C(C)=C/C=C/C=C(C)/C=C/C=C(C)/C=C/C2=C(C)CCCC2(C)C)C(C)(C)CCC1 | 66%
CC[C@@H](C)CC[C@H]1[C@@H](C)CC[C@H]2C(C)(C)CCC[C@]12C | 51.9%
CC(=O)Oc1c(C(C)C)cc(C=O)c2c1[C@H](OC(C)=O)[C@H]1C(C)(C)CCC[C@]21C [STANDISHINAL DIACETATE] | 30.5%

What follows are molecules tested on human gammaherpesvirus 4 (assay: Inhibition of TPA-induced EBV early antigen activation at 3.2 uM).

SMILES | inhibition
CC(C)c1cc(C=O)c2c(c1O)[C@H](O)[C@H]1C(C)(C)CCC[C@]21C | 16.7%
CC1=C(/C=C/C(C)=C/C=C/C(C)=C/C=C/C=C(C)/C=C/C=C(C)/C=C/C2=C(C)CCCC2(C)C)C(C)(C)CCC1 | 18%
CC[C@@H](C)CC[C@H]1[C@@H](C)CC[C@H]2C(C)(C)CCC[C@]12C | 22.2%
CC(=O)Oc1c(C(C)C)cc(C=O)c2c1[C@H](OC(C)=O)[C@H]1C(C)(C)CCC[C@]21C [STANDISHINAL DIACETATE] | 11.1%

What follows are molecules tested on human gammaherpesvirus 4 (assay: Inhibition of TPA-induced EBV early antigen activation at 0.32 uM).

SMILES | inhibition
CC(C)c1cc(C=O)c2c(c1O)[C@H](O)[C@H]1C(C)(C)CCC[C@]21C | 0%
CC1=C(/C=C/C(C)=C/C=C/C(C)=C/C=C/C=C(C)/C=C/C=C(C)/C=C/C2=C(C)CCCC2(C)C)C(C)(C)CCC1 | 0%
CC[C@@H](C)CC[C@H]1[C@@H](C)CC[C@H]2C(C)(C)CCC[C@]12C | 4.5%
CC(=O)Oc1c(C(C)C)cc(C=O)c2c1[C@H](OC(C)=O)[C@H]1C(C)(C)CCC[C@]21C [STANDISHINAL DIACETATE] | 0%

Each molecule was assayed on KB (assay: Cytotoxicity against human KB cells).
Type: functional, cell-based

SMILES | EC50
COc1cc([C@@H]2c3cc4c(cc3[C@@H](O[C@@H]3O[C@@H]5CO[C@@H](C)O[C@H]5[C@H](O)[C@H]3O)[C@H]3COC(=O)[C@H]23)OCO4)cc(OC)c1O [ETOPOSIDE] | 1.1 µM
CC(C)c1c(O)c2c(c3c1OCO3)[C@@]1(C)CCCC(C)(C)[C@@H]1[C@H]2C=O [TAIWANIAQUINOL A] | 8.3 µM
COc1c(O)c2c(c(O)c1C(C)C)C(=O)[C@@H]1C(C)(C)CCC[C@]21C [TAIWANIAQUINOL B] | > 10 µM
COc1c(O)c2c(c(O)c1C(C)C)[C@@H](C=O)[C@H]1C(C)(C)CCC[C@]21C [TAIWANIAQUINOL C] | 8.1 µM
COc1c(O)c2c(c(O)c1C(C)C)C(C=O)=C1C(C)(C)CCC[C@@]12C [TAIWANIAQUINOL D] | 3.5 µM
COc1c(O)c2c(c(O)c1C(C)C)C(=O)[C@H]1C(C)(C)CCC[C@]21C [TAIWANIAQUINOL E] | > 10 µM
COc1c(O)c2c(c(O)c1C(C)C)C(=O)[C@@H]1C(C)(C)C(=O)CC[C@]21C [TAIWANIAQUINOL F] | > 10 µM
CC(C)C1=C(O)C(=O)C2=C(C1=O)C(C=O)=C1C(C)(C)CCC[C@]21C [TAIWANIAQUINONE D] | 7.2 µM
COC1=C(C(C)C)C(=O)C2=C(C1=O)[C@@]1(C)CCCC(C)(C)[C@@H]1C2 [TAIWANIAQUINONE G] | > 10 µM
COC1=C(C(C)C)C(=O)C2=C(C1=O)[C@@]1(C)CCCC(C)(C)C1=C2 [TAIWANIAQUINONE H] | > 10 µM
COC1=C(C(C)C)C(=O)C2=C(C1=O)[C@@]1(C)CCCC(C)(C)[C@@H]1[C@H]2C=O [TAIWANIAQUINONE] | 4.4 µM
CC(C)C1=C(O)C(=O)C2=C(C1=O)[C@H](C=O)[C@H]1C(C)(C)CCC[C@]21C [TAIWANIQUINONE A] | 6.9 µM
COC(=O)[C@H]1C2=C(C(=O)C(O)=C(C(C)C)C2=O)[C@@]2(C)CCCC(C)(C)[C@H]12 [TAIWANIQUINONE E] | > 10 µM
